One data set deals with THP-1 macrophages. The data set can be described thus: Cytotoxicity (LDH release) towards THP-1 macrophages. The class given is cell-based, Human. As to conditions: LPS-stimulated THP-1 macrophages, 4 h. On the procedure: (§1) Human non-small-cell lung adenocarcinoma A549 cells (ATCC CCL-185; LGC Standards, Milan, Italy) and human monocytic THP-1 cells (ATCC TIB-202; LGC Standards) were cultured in tissue culture flasks in Dulbecco’s modified essential medium (DMEM) (Euroclone, Milan, Italy) and RPMI 1640 medium (Euroclone), respectively. Both media were supplemented with 2 mM L-glutamine (Euroclone) and 10% heat-inactivated fetal bovine serum (FBS; Euroclone). Confluent monolayers were detached from the culture flask with 0.25% trypsin/1 mM EDTA solution (Euroclone), suspended in complete culture medium and seeded into flat-bottom 96-well plates at a final density of 1 × 10^4 cells/well (A549) and 2 × 10^4 cells/well (THP-1). A549 cells were cultured for 24 h at 37 °C, 5% CO2 in order to allow adhesion and formation of semi-confluent monolayers. THP-1 cells were cultured for 3 days (37 °C, 5% CO2) in the presence of 100 nM TPA (Sigma-Aldrich, St. Louis, MO, USA) to induce their differentiation into macrophage-like cells.
(§2) The cytotoxicity of lin-SB056-1 and (lin-SB056-1)2-K towards A549 and THP-1 cells was evaluated to exclude a possible correlation between reduction in cytokine levels and decrease in cell numbers. To this end, culture supernatants of cells stimulated with LPS in the presence of the peptides were employed to quantify the amount of cytoplasmic LDH released by dead cells. Cells incubated in culture medium alone or in the presence of LPS served as an indication of spontaneous cell death (cell viability controls), while cells treated with a commercial lysis buffer (Pierce LDH cytotoxicity assay kit, Thermo Fisher Scientific) were used as cell death control (100% cell lysis). The enzymatic activity of LDH in cell supernatants was measured using the Pierce LDH cytotoxicity assay kit (Thermo Fisher Scientific) following manufacturer’s instructions. The cytotoxic effect was determined as follows: cytotoxicity (%) = [(LDH activity of A/LDH activity of B) × 100], where A represents peptide-treated or untreated cells (both in the presence and absence of LPS), and B corresponds to the cell lysis control.
A general note: LDH in the medium is a marker of cell lysis.

Data set [1] is described as follows: BODIPY TR cadaverine (BC) fluorescent displacement assay, LPS binding. The arrangement: species or system P. aeruginosa. As to conditions: P. aeruginosa serotype 10 LPS 10 µg/mL, BC 10 µM; 50 mM Tris-HCl, pH 7.4; 25 °C; excitation 580 nm, emission 620 nm; mean of three independent experiments, SD not exceeding 5%. The method, then: Measurement of the ability of lin-SB056-1 and its dendrimeric derivative to bind P. aeruginosa serotype 10 LPS (Sigma-Aldrich) in vitro was performed by a fluorescent displacement assay using the BODIPY TR cadaverine (BC) probe (5-(((4-(4,4-difluoro-5-(2-thienyl)-4-bora-3a,4a-diaza-s-indacene-3-yl)phenoxy)acetyl)amino)pentylamine, hydrochloride); Thermo Fisher Scientific), as described elsewhere. BC binds to LPS by recognizing the lipid A portion and the probe fluorescence is quenched. When a peptide able to interact with LPS is added, BC is displaced from the complex and its fluorescence increases. LPS binding assays were carried out in 50 mM Tris-HCl buffer, pH 7.4. Aliquots of the peptides at a final concentration of 0.1 μM were successively added to a cuvette containing the LPS/BC complex (10 µg/mL P. aeruginosa LPS and 10 µM BC). Fluorescence measurements were performed with a Perkin-Elmer LS 55B spectrofluorometer (Perkin-Elmer, Waltham, MA, USA) using a thermostated (25 °C) cuvette apparatus (excitation: 580 nm; emission: 620 nm).

Data set [2] is described as follows: LAL assay, LPS neutralization. The class given is biochemical, Escherichia coli. The conditions noted are these: 2.4 to 19.25 μM peptide; E. coli 011:B4 LPS 2 EU/mL; 30 min, 37 °C. The method, then: The ability of lin-SB056-1 and (lin-SB056-1)2-K to neutralize the activity of LPS was analyzed using a standardized LAL assay (Pierce LAL chromogenic endotoxin quantitation kit; Thermo Fisher Scientific). Peptides at different concentrations (2.4 to 19.25 μM) were pre-incubated with E. coli 011:B4 LPS (2 Endotoxin Units (EU)/mL; EU = unit of measurement for endotoxin activity) for 30 min (37 °C, shaking) in order to promote the interaction between the two molecules. LPS alone was used as positive control. Following incubation, peptide-treated and untreated samples were mixed with the LAL reagent (1:1 ratio) and incubated for 10 min at 37 °C. Subsequently, 100 μL of the chromogenic substrate were added and incubated with the samples for 6 min. The reaction was terminated by adding 100 μL of acetic acid (25% v/v), and absorbance was measured at 405 nm ([…]) using a microplate reader (Multiscan FC, Life Technologies Italia, Monza, Italy). The amount of peptide-sequestered LPS was determined as follows: LPS neutralization (%) = [100 − (ODpeptide/ODpositive control × 100)].

Data set [3] relates to A549 cells. In words: Cytotoxicity (LDH release) towards A549 cells. The format is cell-based, Human. The conditions noted are these: LPS-stimulated A549, 4 h. On the procedure: as §1, §2
Data set [4] relates to A549 cells. The data set can be described thus: LPS-induced cytokine production by A549 cells (bead-based multiplex immunoassay). As to conditions: LPS 800 ng/mL, 4 h, 37 °C, peptide 4.8 to 19.25 μM. The class given is cell-based, Human. The method, then: as §1
The anti-inflammatory potential of lin-SB056-1 and (lin-SB056-1)2-K was assessed by evaluating their ability to reduce LPS-induced production of pro-inflammatory cytokines by A549 cells and THP-1 macrophages. In order to ensure cytokine production, cell monolayers were stimulated with LPS from P. aeruginosa serotype 10 (purified by phenol extraction; Sigma-Aldrich, Milano, Italy) at a final concentration of 10 ng/mL (THP-1) and 800 ng/mL (A549). LPS concentrations used in the experiments were chosen based on preliminary assays aimed at identifying the minimum dose of the molecule able to stimulate cytokine production after 4 h of exposure. In order to assess the inhibitory activity of peptides on cytokine production, cell monolayers were incubated in complete culture medium in the presence of LPS and different concentrations of lin-SB056-1 and (lin-SB056-1)2-K (4.8 to 19.25 μM) for 4 h (37 °C, 5% CO2). Cells incubated in the presence of LPS alone were used as positive (cytokine production) control. Following incubation, cell culture supernatants were collected, filter sterilized (0.22 µm) and employed for the quantification of cytokines and the assessment of cell viability.
Different pro-inflammatory cytokines (i.e., IL-1β, IL-6, IL-8 and TNF-α) were quantified in cell culture supernatants through a bead-based multiplex immunoassay (LEGENDplex multi-analyte flow assay kit; BioLegend, San Diego, CA, USA) following manufacturer’s instructions. Briefly, 25 μL of cytokine standard or cell supernatant were incubated with 25 μL of anti-cytokine conjugated beads into V-bottom 96-well plates for 2 h. Following incubation, the plates were washed and subsequently incubated with the detection antibody (25 μL/well) for 1 h. A volume of 25 μL of streptavidin-phycoerythrin was added to each well, and the plates were incubated for another 30 min in the dark. Following consecutive washing steps, the beads were resuspended in the LEGENDplex wash buffer and the samples were analyzed by flow cytometry (BD Accuri C6 flow cytometer; BD Biosciences, Mountain View, CA, United States). Data were acquired with the BD Accuri C6 software (BD Biosciences) (300 events per analyte) and analyzed with the LEGENDplex software (BioLegend). Minimum detectable concentration (MDC+2STDEV) for the tested cytokines were as follows: IL-1β, 0.65 + 0.47 pg/mL; IL-6, 0.97 + 1.46 pg/mL; IL-8, 1.90 + 0.65 pg/mL; TNF-α, 0.88 + 0.27 pg/mL.

The subject of the next data set is P. aeruginosa. The conditions noted are these: previous studies; cited from earlier work. An excerpt: (§3) The global issue of anti-microbial resistance coupled with the lack of new treatments for bacterial infections has stimulated interest in the use of AMPs for therapeutic purposes. Due to their unique mechanism(s) of action and wide spectrum of biological activities, AMPs are emerging as a promising alternative to conventional anti-microbial agents for the management of antibiotic-resistant and biofilm-associated infections. Although mainly intended for topical use due to potential toxicity and reduced stability under physiological conditions, many different peptides with anti-micro ...

A further data set deals with mammalian cells. The conditions noted are these: cited from earlier work.
Excerpt: as §3

The conditions of data set [5]: in vitro; cited from earlier work. An excerpt:
While the anti-microbial activities of AMPs are becoming increasingly understood, the mechanisms underlying their anti-inflammatory effect still need to be fully elucidated. Nevertheless, the anti-inflammatory mode of action of many peptides has been attributed to their ability to efficiently bind LPS and/or block LPS recognition by effector cells. […] Analogous LPS-ne ... || It is generally thought that the dendrimeric architecture leads to improved biological activity due to a higher local concentration of the active sequence. Possibly, thanks to its conformational plasticity, the dendrimeric organization might maximize target binding (e.g., LPS) through electrostatic interactions, leading to greater biological effects. Nevertheless, we cannot exclude a role of stability on the ability of dendrimeric peptides to establish solid interactions with LPS under specific experimental conditions. For instance, the stronger LPS-binding affinity of (lin-SB056-1 ...

The subject of the next data set is sepsis in animal models. The conditions noted are these: by sequestering soluble LPS; cited from earlier work. An excerpt: While the anti-microbial activities of AMPs are becoming increasingly understood, the mechanisms underlying their anti-inflammatory effect still need to be fully elucidated. Nevertheless, the anti-inflammatory mode of action of many peptides has been attributed to their ability to efficiently bind LPS and/or block LPS recognition by effector cells. […] Analogous LPS-ne ...

[6] abbreviates: up to 19.25 μM (highest tested), 37 °C, 5% CO2, relative to cell lysis control, at least three independent experiments.

Entries after “also recorded” stand apart in the source; their conditions may differ.

In the case of “KWKIRVRLSA-NH2 [lin-SB056-1, semi-synthetic peptide lin-SB056-1]”, the “cell death (LDH release), with LPS” value in the data set with THP-1 macrophages (setting [6]) and in the data set with A549 cells [3] (setting [6]) was “less than 5%” throughout. In addition, the “toxicity” value in the data set with THP-1 macrophages (up to 19.25 μM, LDH release) is listed as “no detectable toxicity”; with A549 cells [3] (up to 19.25 μM, LDH release), “no detectable toxicity”. Further, the “ED50 (Effective Displacement; peptide concentration displacing half of the BC)” value in data set [1] is listed as approximately 1.75 µM. Further, the “LPS neutralization / LAL activity” value in [2] was “differently from lin-SB056-1”. For the same substance, the “effect on IL-6 release” value in the data set on A549 cells [4] was “only a decrease in IL-8 levels was recorded”. Further, the “effect on IL-8 release” value with A549 cells [4] (lin-SB056-1 decrease at 19.25 μM (highest tested)) was “decrease in IL-8 levels”. In the data set with P. aeruginosa, the “anti-microbial / anti-biofilm activity” value is given as “effective against biofilms; also recorded: promising anti-microbial activity”. In addition, the “cytotoxicity” value in the data set on mammalian cells is “low cytotoxicity”.

Consider “LL-37: well-known human cathelicidin LL-37 (LLGDFFRKSKEKIGKEFKRIVQRIKDFLRNLVPRTES; Antibacterial peptide LL-37; UniProt P49913 134-170, looked up)”, for which the “LPS-induced pro-inflammatory responses” value in data set [5] was “suppress LPS-induced pro-inflammatory responses”. Further, the “protection from sepsis” value with sepsis in animal models was “protect from sepsis”.

Source of the values: PMC7557804, “The Anti-Microbial Peptide (Lin-SB056-1)2-K Reduces Pro-Inflammatory Cytokine Release through Interaction with Pseudomonas aeruginosa Lipopolysaccharide” (Antibiotics, 2020).
